Six compounds from US9481685B2, “Imaging neuroinflammation” (GE Healthcare Limited, priority 2008, dated 2016) can be followed below.

A word on the Ki: it is the dissociation constant of the complex between target and ligand, obtained from inhibition or displacement.

Where two headings read alike, the source gives them in different places.

The target in data set [1] is Wistar rat heart PBR (Rattus norvegicus (Rat), UniProt P16257). The data set is described as follows: In vitro potency assay: competition for binding to PBR against 0.3 nM [3H]-PK-11195. How it is done: The reaction was carried out in 50 mM Tris-HCl, pH 7.4 10 mM MgCl2 for 15 minutes at 25° C.
For data set [2], the target named is T1, PBR (Rattus norvegicus (Rat), UniProt P16257). The experiment in a line: In vivo biodistribution, olfactory bulb:striatum uptake. The settings on record: 18F-labelled agents, adult male Wistar rats, lateral tail vein, 30 min post-injection. Here is the method: In vivo imaging agents 1-7 as prepared in Examples 7, 8 and 9 above were tested in the in vivo biodistribution model and their biodistribution compared to that of the prior art compound [^18F]FE-PBR (prepared according to Example 14 of WO 2007/057705).
Adult male Wistar rats (200-300 g) were injected with 1-3 MBq of each in vivo imaging agent via the lateral tail vein. At 2 10,30 or 60 min (n=3) after injection, rats were euthanised and tissues or fluids were sampled for radioactive measurement by liquid scintillation counting.

The target of data set [3] is T1, PBR. The data set is described as follows: Autoradiography using facial nerve axotomy (FNA) model. The data set is classed as in vivo. The settings on record: facial nucleus, 30 minutes after injection. Here is the method: For in vivo studies, male Wistar rats (180-200 g) were used. Under Isoflurane anaesthesia, the hair from the right side of the auricular region was removed. An infraauricular incision was made and the main trunk of the facial nerve identified. The facial nerve was severed behind the ear at the exit from the stylomastoid foramen. The wound was sutured and animals left to recover. Seven days post-surgery animals were injected with ˜5-10 MBq in vivo imaging agent 1 via the lateral tail vein. Animals were killed 30 minutes later and brain stem removed and frozen in isopentane. Cryostat sections (12 μm) of brainstem containing both facial nuclei were mounted on glass slides and exposed to phosphor screen overnight.
Screens were then scanned on the Storm (GE Healthcare) phosphor-imager and the resultant scan was analysed and quantified using ImageQuant TL (GE Healthcare).

The mark [4] stands for this setting: non-radioactive analogues, Wistar rat heart PBR, vs 0.3 nM [3H]-PK-11195, 15 minutes at 25° C., read-out: Ki.

With “(+-)-4-fluoro-11-(2-fluoroethyl)-6,11-dihydro-5-thia-11-aza-benzo[a]fluorene-6-carboxylic acid diethyl amide [Imaging Agent 4]”, the Ki in data set [1] (setting [4]) stood at 0.93 nM. Besides, in data set [2], the “OB:Striatum @ 30 min” value is 2.00.
For the compound `CCN(CC)C(=O)C1Sc2ccccc2-c2c1c1ccccc1n2CC[18F]` (stereo not shown) [[^18F]FE-PBR, reference compound], the Ki in data set [1] amounted to 0.68 nM. Also, the “OB:Striatum @ 30 min” value in data set [2] was 1.42.
Take `CCOc1ccc2c(c1)c1c(n2CCF)-c2ccccc2SC1C(=O)N(CC)CC` (stereo not shown) [compound 6]: in data set [1] (setting [4]), the Ki came to 0.52 nM. In addition, the “OB:Striatum @ 30 min” value in data set [2] is reported as 2.67.
In the same order, the values of `CCN(CC)C(=O)C1Sc2ccccc2-c2c1c1c(OC)cccc1n2CCF` (stereo not shown) [compound 7] are 1.09 nM and 2.42.
`CCN(CC)C(=O)C1Sc2ccccc2-c2c1c1cc(OC)ccc1n2CCF` (racemic) [Imaging Agent 1, (+-)-11-(2-fluoroethyl)-8-methoxy-6,11-dihydro-5-thia-11-aza-benzo[a]fluorene-6-carboxylic acid diethyl amide]: the Ki in data set [1] (setting [4]) was 0.37 nM. Moreover, the “Average intensity in the lesioned side” value in data set [3] (lesioned side, seven days post-surgery) amounted to 7.75±0.95. Also, the “Average intensity in the non-lesioned side” value in data set [3] (non-lesioned side) came out at 3.73±0.36.
“(+-)-11-(2-fluoroethyl)-10-methoxy-6,11-dihydro-5-thia-11-aza-benzo[a]fluorene-6-carboxylic acid diethyl amide [Imaging Agent 3]”: the Ki in data set [1] (setting [4]) was determined as 0.4 nM. In data set [2], the “OB:Striatum @ 30 min” value is on record as 3.50.
